Reference: ChEMBL document CHEMBL4507286 (2021)

Columns and labels:
[1] = molecular target: Tyrosine-protein kinase ABL1 (Homo sapiens) (UniProt P00519)
[2] = molecular target: Serine/threonine-protein kinase Nek3 (Homo sapiens) (UniProt P51956)
[3] = molecular target: Tyrosine-protein kinase Fyn (Homo sapiens) (UniProt P06241)
[4] = molecular target: Ephrin type-A receptor 7 (Homo sapiens) (UniProt Q15375)
[5] = system: Mast/stem cell growth factor receptor Kit (Homo sapiens), P10721 [L576P]
[6] = molecular target: Ribosomal protein S6 kinase alpha-6 (Homo sapiens) (UniProt Q9UK32)
[7] = molecular target: Ribosomal protein S6 kinase alpha-2 (Homo sapiens) (UniProt Q15349)
[8] = molecular target: Serine/threonine-protein kinase 16 (Homo sapiens) (UniProt O75716)
[9] = molecular target: Ribosomal protein S6 kinase alpha-1 (Homo sapiens) (UniProt Q15418)
[10] = molecular target: Cyclin-dependent kinase 9 (Homo sapiens) (UniProt P50750)
[11] = molecular target: Glycogen synthase kinase-3 beta (Homo sapiens, UniProt P49841)
[12] = system: Receptor-type tyrosine-protein kinase FLT3 (Homo sapiens), P36888 [UNDEFINED MUTATION]
[13] = molecular target: Microtubule-associated serine/threonine-protein kinase 1 (Homo sapiens) (UniProt Q9Y2H9)
[14] = molecular target: Ribosomal protein S6 kinase alpha-2 (Homo sapiens) (UniProt Q15349); remark: listed apart in the source
[15] = system: Phosphatidylinositol 4,5-bisphosphate 3-kinase catalytic subunit alpha isoform (Homo sapiens), P42336 [E545A]
[16] = molecular target: Serine/threonine-protein kinase TAO1 (Homo sapiens) (UniProt Q7L7X3)
[17] = system: Tyrosine-protein kinase ABL1 (Homo sapiens), P00519 [F317I]
[18] = molecular target: Cyclin-dependent kinase 8 (Homo sapiens) (UniProt P49336)
[19] = molecular target: Mitogen-activated protein kinase kinase kinase kinase 2 (Homo sapiens) (UniProt Q12851)
[20] = molecular target: TRAF2 and NCK-interacting protein kinase (Homo sapiens) (UniProt Q9UKE5)
[21] = molecular target: D(3) dopamine receptor (Homo sapiens) (UniProt P35462); details: Compound concentration 10.0 uM
[22] = molecular target: Mitogen-activated protein kinase kinase kinase 3 (Homo sapiens) (UniProt Q99759)
[23] = molecular target: Serine/threonine-protein kinase RIO2 (Homo sapiens) (UniProt Q9BVS4)
[24] = molecular target: Tyrosine-protein kinase SYK (Homo sapiens) (UniProt P43405)
[25] = molecular target: Beta-adrenergic receptor kinase 1 (Homo sapiens) (UniProt P25098)
[26] = molecular target: Mitogen-activated protein kinase kinase kinase kinase 1 (Homo sapiens) (UniProt Q92918)
[27] = molecular target: Phosphatidylinositol 4-phosphate 3-kinase C2 domain-containing subunit beta (Homo sapiens) (UniProt O00750)
[28] = system: Phosphatidylinositol 4,5-bisphosphate 3-kinase catalytic subunit alpha isoform (Homo sapiens), P42336 [H1047L]
[29] = molecular target: Mitogen-activated protein kinase kinase kinase 10 (Homo sapiens) (UniProt Q02779)
[30] = molecular target: Serine/threonine-protein kinase TAO3 (Homo sapiens) (UniProt Q9H2K8)
[31] = molecular target: Protein kinase C eta type (Homo sapiens) (UniProt P24723)
[32] = molecular target: Mitogen-activated protein kinase 12 (Homo sapiens) (UniProt P53778)
[33] = molecular target: Mitogen-activated protein kinase kinase kinase 12 (Homo sapiens) (UniProt Q12852)
[34] = molecular target: Insulin receptor (Homo sapiens) (UniProt P06213)
[35] = molecular target: Inhibitor of nuclear factor kappa-B kinase subunit epsilon (Homo sapiens) (UniProt Q14164)
[36] = system: Tyrosine-protein kinase ABL1 (Homo sapiens), P00519 [M351T]
[37] = molecular target: Wee1-like protein kinase (Homo sapiens) (UniProt P30291)
[38] = molecular target: Atypical kinase COQ8B, mitochondrial (Homo sapiens) (UniProt Q96D53)
[39] = molecular target: Dual specificity mitogen-activated protein kinase kinase 3 (Homo sapiens) (UniProt P46734)
[40] = system: Receptor-type tyrosine-protein kinase FLT3 (Homo sapiens), P36888 [D835Y]
[41] = molecular target: Calcium/calmodulin-dependent protein kinase type 1G (Homo sapiens) (UniProt Q96NX5)
[42] = molecular target: BDNF/NT-3 growth factors receptor (Homo sapiens) (UniProt Q16620)
[43] = molecular target: Serine/threonine-protein kinase RIO1 (Homo sapiens) (UniProt Q9BRS2)
[44] = molecular target: Tyrosine-protein kinase Mer (Homo sapiens) (UniProt Q12866)
[45] = molecular target: Serine/threonine-protein kinase 38 (Homo sapiens) (UniProt Q15208)
[46] = Compound concentration 1000.0 nM
[47] = Compound concentration 100.0 nM

Chain of Ribosomal protein S6 kinase alpha-2 (Homo sapiens) (Q15349 whole entry, canonical isoform): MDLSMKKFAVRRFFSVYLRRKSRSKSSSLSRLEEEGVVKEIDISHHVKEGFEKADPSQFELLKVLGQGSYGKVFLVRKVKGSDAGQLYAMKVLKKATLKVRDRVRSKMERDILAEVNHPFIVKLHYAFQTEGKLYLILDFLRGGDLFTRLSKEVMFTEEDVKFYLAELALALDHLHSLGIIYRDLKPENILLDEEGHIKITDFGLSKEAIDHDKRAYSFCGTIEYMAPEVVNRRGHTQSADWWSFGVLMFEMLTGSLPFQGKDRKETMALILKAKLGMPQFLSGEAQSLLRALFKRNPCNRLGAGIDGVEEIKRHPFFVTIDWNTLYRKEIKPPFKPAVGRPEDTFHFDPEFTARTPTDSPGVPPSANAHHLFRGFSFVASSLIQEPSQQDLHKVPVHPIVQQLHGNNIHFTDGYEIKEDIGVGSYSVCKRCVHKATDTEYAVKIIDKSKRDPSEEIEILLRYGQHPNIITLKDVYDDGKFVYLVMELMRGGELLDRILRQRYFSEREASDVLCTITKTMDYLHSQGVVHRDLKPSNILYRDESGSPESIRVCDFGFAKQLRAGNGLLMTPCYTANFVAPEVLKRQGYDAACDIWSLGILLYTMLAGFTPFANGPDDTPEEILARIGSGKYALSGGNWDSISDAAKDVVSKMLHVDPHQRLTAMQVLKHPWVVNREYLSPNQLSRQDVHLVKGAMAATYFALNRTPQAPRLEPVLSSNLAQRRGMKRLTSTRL
Chain of Mitogen-activated protein kinase kinase kinase 3 (Homo sapiens) (Q99759 whole entry): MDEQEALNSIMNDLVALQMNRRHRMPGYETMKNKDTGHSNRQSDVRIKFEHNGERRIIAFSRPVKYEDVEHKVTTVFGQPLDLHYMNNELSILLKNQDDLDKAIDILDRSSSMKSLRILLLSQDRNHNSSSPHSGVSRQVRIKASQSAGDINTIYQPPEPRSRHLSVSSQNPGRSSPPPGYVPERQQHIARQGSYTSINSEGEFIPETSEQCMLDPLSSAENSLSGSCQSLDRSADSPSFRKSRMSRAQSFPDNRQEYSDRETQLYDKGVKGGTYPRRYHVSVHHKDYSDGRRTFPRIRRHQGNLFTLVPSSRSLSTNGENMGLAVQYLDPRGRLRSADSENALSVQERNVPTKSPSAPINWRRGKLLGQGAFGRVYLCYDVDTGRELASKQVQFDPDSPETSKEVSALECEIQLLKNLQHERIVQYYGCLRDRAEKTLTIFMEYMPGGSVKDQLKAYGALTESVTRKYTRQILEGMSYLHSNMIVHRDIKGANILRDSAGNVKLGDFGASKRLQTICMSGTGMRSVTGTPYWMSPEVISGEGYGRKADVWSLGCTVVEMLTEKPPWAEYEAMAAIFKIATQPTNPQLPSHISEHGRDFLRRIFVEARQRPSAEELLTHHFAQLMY
Chain of Mitogen-activated protein kinase kinase kinase kinase 2 (Homo sapiens) (Q12851 whole entry): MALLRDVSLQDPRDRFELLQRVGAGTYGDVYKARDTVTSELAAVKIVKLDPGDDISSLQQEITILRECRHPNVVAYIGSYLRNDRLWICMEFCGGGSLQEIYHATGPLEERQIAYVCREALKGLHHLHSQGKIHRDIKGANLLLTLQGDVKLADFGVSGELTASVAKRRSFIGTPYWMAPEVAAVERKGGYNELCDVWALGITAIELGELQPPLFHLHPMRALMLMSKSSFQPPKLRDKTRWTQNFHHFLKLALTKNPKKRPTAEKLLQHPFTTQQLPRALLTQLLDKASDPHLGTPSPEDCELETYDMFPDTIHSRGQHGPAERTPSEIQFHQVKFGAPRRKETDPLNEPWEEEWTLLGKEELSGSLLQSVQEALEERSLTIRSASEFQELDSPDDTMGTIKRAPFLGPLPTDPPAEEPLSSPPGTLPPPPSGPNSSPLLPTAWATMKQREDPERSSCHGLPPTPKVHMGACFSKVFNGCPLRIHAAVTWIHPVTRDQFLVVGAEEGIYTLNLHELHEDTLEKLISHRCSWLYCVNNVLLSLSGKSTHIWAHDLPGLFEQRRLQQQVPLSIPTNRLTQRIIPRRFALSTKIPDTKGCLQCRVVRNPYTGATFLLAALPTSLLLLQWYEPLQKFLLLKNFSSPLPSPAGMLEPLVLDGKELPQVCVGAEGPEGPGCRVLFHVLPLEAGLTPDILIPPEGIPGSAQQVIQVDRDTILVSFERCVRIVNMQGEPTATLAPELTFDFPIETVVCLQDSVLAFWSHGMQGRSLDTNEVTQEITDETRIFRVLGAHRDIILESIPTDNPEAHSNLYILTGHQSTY
Chain of Mitogen-activated protein kinase 12 (Homo sapiens) (P53778 whole entry): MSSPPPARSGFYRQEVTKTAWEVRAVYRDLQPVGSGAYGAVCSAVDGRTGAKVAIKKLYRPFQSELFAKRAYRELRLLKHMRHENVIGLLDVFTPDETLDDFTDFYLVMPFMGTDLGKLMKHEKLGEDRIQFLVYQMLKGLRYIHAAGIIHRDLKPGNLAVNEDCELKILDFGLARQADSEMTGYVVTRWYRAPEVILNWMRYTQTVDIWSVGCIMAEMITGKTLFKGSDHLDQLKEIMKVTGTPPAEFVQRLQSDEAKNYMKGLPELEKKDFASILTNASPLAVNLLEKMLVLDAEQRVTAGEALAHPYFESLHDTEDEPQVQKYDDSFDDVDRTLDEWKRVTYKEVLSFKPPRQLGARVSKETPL
Chain of Serine/threonine-protein kinase RIO2 (Homo sapiens) (Q9BVS4 whole entry, looked up): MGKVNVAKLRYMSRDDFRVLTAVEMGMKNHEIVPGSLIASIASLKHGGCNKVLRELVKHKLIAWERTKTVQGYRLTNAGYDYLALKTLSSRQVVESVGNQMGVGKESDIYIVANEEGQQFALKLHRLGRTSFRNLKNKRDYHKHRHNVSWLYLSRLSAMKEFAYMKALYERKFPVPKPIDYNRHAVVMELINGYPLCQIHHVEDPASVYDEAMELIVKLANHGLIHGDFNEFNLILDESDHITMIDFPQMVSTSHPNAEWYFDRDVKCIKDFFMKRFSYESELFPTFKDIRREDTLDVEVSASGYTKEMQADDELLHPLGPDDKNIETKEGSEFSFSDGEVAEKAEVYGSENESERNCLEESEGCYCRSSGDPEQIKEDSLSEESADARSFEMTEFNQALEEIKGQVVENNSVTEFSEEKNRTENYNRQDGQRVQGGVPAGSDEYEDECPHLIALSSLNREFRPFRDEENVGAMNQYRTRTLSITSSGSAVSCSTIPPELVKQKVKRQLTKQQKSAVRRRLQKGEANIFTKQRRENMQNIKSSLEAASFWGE
Chain of Serine/threonine-protein kinase Nek3 (Homo sapiens) (P51956 whole entry): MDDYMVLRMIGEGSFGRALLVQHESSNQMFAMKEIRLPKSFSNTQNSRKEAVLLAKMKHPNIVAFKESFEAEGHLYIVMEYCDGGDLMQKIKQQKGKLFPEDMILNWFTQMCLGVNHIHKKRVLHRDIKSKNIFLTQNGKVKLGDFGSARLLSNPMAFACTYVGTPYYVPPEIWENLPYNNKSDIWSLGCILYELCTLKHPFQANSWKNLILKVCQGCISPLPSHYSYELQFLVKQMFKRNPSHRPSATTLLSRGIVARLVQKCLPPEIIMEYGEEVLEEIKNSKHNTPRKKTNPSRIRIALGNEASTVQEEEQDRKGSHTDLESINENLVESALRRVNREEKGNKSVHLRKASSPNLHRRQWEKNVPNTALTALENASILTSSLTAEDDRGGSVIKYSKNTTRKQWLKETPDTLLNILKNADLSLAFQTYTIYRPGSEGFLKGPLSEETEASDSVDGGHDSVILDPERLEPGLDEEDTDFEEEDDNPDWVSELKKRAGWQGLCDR
Chain of TRAF2 and NCK-interacting protein kinase (Homo sapiens) (Q9UKE5 whole entry, looked up): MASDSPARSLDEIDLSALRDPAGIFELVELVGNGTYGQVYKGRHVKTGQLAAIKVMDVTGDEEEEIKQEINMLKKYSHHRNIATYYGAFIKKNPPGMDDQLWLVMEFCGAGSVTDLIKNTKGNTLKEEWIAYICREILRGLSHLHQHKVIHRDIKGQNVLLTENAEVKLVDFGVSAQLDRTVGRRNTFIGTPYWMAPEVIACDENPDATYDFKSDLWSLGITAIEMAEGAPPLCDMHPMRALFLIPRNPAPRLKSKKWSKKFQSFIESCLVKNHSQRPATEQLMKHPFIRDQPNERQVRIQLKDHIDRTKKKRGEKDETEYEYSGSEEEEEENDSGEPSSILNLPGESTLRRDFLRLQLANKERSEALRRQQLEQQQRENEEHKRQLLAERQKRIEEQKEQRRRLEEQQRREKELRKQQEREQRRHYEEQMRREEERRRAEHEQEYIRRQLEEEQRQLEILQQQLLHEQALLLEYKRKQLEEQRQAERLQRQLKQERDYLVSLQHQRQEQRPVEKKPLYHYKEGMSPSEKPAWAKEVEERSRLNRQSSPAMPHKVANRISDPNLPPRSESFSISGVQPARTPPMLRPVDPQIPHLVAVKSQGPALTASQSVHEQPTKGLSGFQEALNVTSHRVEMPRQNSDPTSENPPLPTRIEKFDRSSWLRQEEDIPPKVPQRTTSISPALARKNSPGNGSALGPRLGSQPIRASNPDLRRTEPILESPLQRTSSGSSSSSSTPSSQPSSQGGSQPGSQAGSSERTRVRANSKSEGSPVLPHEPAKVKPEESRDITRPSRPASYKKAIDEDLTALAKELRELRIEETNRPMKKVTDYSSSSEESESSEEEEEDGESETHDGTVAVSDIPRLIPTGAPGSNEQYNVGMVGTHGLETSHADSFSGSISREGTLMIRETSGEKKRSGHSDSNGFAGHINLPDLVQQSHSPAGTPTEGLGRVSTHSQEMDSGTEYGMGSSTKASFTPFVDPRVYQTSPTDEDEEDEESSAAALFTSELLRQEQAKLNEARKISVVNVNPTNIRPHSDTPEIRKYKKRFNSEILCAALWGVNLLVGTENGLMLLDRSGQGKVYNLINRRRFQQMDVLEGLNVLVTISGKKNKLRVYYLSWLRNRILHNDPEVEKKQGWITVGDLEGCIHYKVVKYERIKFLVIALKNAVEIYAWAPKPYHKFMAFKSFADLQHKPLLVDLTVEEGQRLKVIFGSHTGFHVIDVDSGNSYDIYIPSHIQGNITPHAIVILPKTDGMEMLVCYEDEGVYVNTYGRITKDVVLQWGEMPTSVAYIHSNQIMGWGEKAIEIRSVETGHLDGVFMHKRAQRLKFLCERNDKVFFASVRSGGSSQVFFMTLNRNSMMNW

**Q.** `C[C@H](NC(=O)Nc1cc2[nH]ncc2c(CO)n1)c1ccccn1` [ERKi-NC] was tested. Which residual activity [1, 46] did it give?
**A.** Its residual activity is 51.5%.

**Q.** And the residual activity [2, 46]?
**A.** The residual activity was 46.8%.

**Q.** And the residual activity [3, 46]?
**A.** Its residual activity is 70.9%.

**Q.** What about the residual activity [4, 46] of the same compound?
**A.** The residual activity was 97.3%.

**Q.** And the residual activity [5, 46]?
**A.** The residual activity was 100%.

**Q.** What about the residual activity [6, 46] of the same compound?
**A.** Its residual activity is 100%.

**Q.** And the residual activity [7, 46]?
**A.** The residual activity was 100%.

**Q.** And the residual activity [8, 46]?
**A.** Its residual activity is 100%.

**Q.** What about the residual activity [9, 46] of the same compound?
**A.** The residual activity was 100%.

**Q.** What about the residual activity [10, 46] of the same compound?
**A.** Its residual activity is 100%.

**Q.** And the residual activity [11, 46]?
**A.** The residual activity was 100%.

**Q.** And the residual activity [12, 46]?
**A.** Its residual activity is 100%.

**Q.** What about the residual activity [13, 46] of the same compound?
**A.** Its residual activity is 100%.

**Q.** What about the residual activity [14, 46] of the same compound?
**A.** Its residual activity is 95.3%.

**Q.** And the residual activity [15, 46]?
**A.** Its residual activity is 71.9%.

**Q.** And the residual activity [16, 46]?
**A.** The residual activity was 100%.

**Q.** And the residual activity [17, 46]?
**A.** The residual activity was 100%.

**Q.** And the residual activity [18, 46]?
**A.** Its residual activity is 100%.

**Q.** And the residual activity [19, 46]?
**A.** The residual activity was 100%.

**Q.** What about the residual activity [20, 46] of the same compound?
**A.** The residual activity was 100%.

**Q.** And the inhibition [21]?
**A.** Its inhibition is 27.9%.

**Q.** And the residual activity [22, 46]?
**A.** Its residual activity is 100%.

**Q.** What about the residual activity [23, 46] of the same compound?
**A.** The residual activity was 100%.

**Q.** What about the residual activity [24, 46] of the same compound?
**A.** The residual activity was 100%.

**Q.** And the residual activity [25, 46]?
**A.** The residual activity was 79.3%.

**Q.** And the residual activity [26, 46]?
**A.** The residual activity was 93.8%.

**Q.** And the residual activity [27, 46]?
**A.** Its residual activity is 100%.

**Q.** And the residual activity [28, 46]?
**A.** The residual activity was 100%.

**Q.** What about the residual activity [29, 46] of the same compound?
**A.** The residual activity was 100%.

**Q.** And the residual activity [30, 46]?
**A.** Its residual activity is 100%.

**Q.** What about the residual activity [31, 46] of the same compound?
**A.** The residual activity was 95.4%.

**Q.** And the residual activity [32, 46]?
**A.** Its residual activity is 48.4%.

**Q.** What about the residual activity [33, 46] of the same compound?
**A.** Its residual activity is 67.9%.

**Q.** And the residual activity [34, 46]?
**A.** The residual activity was 100%.

**Q.** And the residual activity [35, 46]?
**A.** The residual activity was 100%.

**Q.** And the residual activity [36, 46]?
**A.** The residual activity was 89.8%.

**Q.** And the residual activity [37, 46]?
**A.** Its residual activity is 100%.

**Q.** What about the residual activity [38, 46] of the same compound?
**A.** Its residual activity is 99.8%.

**Q.** And the residual activity [39, 46]?
**A.** The residual activity was 76.3%.

**Q.** What about the residual activity [40, 46] of the same compound?
**A.** Its residual activity is 96.8%.

**Q.** What about the residual activity [41, 46] of the same compound?
**A.** The residual activity was 100%.

**Q.** And the residual activity [42, 46]?
**A.** The residual activity was 68.5%.

**Q.** What about the residual activity [43, 46] of the same compound?
**A.** The residual activity was 100%.

**Q.** What about the residual activity [44, 46] of the same compound?
**A.** The residual activity was 100%.

**Q.** What about the residual activity [45, 46] of the same compound?
**A.** The residual activity was 81.4%.

**Q.** With `C[C@@H](NC(=O)Nc1cc2[nH]ncc2c(CO)n1)c1ccccc1` [ERKi] as the compound, how does the residual activity [1, 47] read?
**A.** The residual activity was 85.9%.

**Q.** And the residual activity [2, 47]?
**A.** The residual activity was 79.6%.

**Q.** And the residual activity [3, 47]?
**A.** Its residual activity is 95.2%.

**Q.** What about the residual activity [4, 47] of the same compound?
**A.** Its residual activity is 91.1%.

**Q.** And the residual activity [5, 47]?
**A.** Its residual activity is 72.1%.

**Q.** What about the residual activity [6, 47] of the same compound?
**A.** The residual activity was 83.4%.

**Q.** And the residual activity [7, 47]?
**A.** The residual activity was 90.7%.

**Q.** And the residual activity [8, 47]?
**A.** Its residual activity is 60.3%.

**Q.** And the residual activity [9, 47]?
**A.** Its residual activity is 100%.

**Q.** And the residual activity [10, 47]?
**A.** The residual activity was 95.4%.

**Q.** What about the residual activity [11, 47] of the same compound?
**A.** The residual activity was 100%.

**Q.** And the residual activity [12, 47]?
**A.** Its residual activity is 80.7%.

**Q.** And the residual activity [13, 47]?
**A.** Its residual activity is 93.9%.

**Q.** And the residual activity [14, 47]?
**A.** Its residual activity is 94.1%.

**Q.** And the residual activity [15, 47]?
**A.** The residual activity was 78.4%.

**Q.** And the residual activity [16, 47]?
**A.** Its residual activity is 66.4%.

**Q.** What about the residual activity [17, 47] of the same compound?
**A.** Its residual activity is 80.2%.

**Q.** And the residual activity [18, 47]?
**A.** The residual activity was 76.1%.

**Q.** And the residual activity [19, 47]?
**A.** The residual activity was 78.3%.

**Q.** And the residual activity [20, 47]?
**A.** The residual activity was 95.8%.

**Q.** And the inhibition [21]?
**A.** The inhibition was -2.24%.

**Q.** And the residual activity [22, 47]?
**A.** Its residual activity is 82.1%.

**Q.** What about the residual activity [23, 47] of the same compound?
**A.** Its residual activity is 84.6%.

**Q.** What about the residual activity [24, 47] of the same compound?
**A.** Its residual activity is 100%.

**Q.** What about the residual activity [25, 47] of the same compound?
**A.** The residual activity was 79.5%.

**Q.** What about the residual activity [26, 47] of the same compound?
**A.** The residual activity was 96.9%.

**Q.** What about the residual activity [27, 47] of the same compound?
**A.** The residual activity was 85.7%.

**Q.** And the residual activity [28, 47]?
**A.** The residual activity was 82.1%.

**Q.** What about the residual activity [29, 47] of the same compound?
**A.** Its residual activity is 100%.

**Q.** And the residual activity [30, 47]?
**A.** The residual activity was 73%.

**Q.** What about the residual activity [31, 47] of the same compound?
**A.** The residual activity was 90.1%.

**Q.** What about the residual activity [32, 47] of the same compound?
**A.** The residual activity was 80.7%.

**Q.** What about the residual activity [33, 47] of the same compound?
**A.** The residual activity was 97.4%.

**Q.** What about the residual activity [34, 47] of the same compound?
**A.** Its residual activity is 74.7%.

**Q.** And the residual activity [35, 47]?
**A.** Its residual activity is 66.7%.

**Q.** What about the residual activity [36, 47] of the same compound?
**A.** The residual activity was 100%.

**Q.** What about the residual activity [37, 47] of the same compound?
**A.** Its residual activity is 98.9%.

**Q.** And the residual activity [38, 47]?
**A.** Its residual activity is 86.7%.

**Q.** And the residual activity [39, 47]?
**A.** Its residual activity is 77%.

**Q.** What about the residual activity [40, 47] of the same compound?
**A.** The residual activity was 86.2%.

**Q.** What about the residual activity [41, 47] of the same compound?
**A.** The residual activity was 70.6%.

**Q.** What about the residual activity [42, 47] of the same compound?
**A.** The residual activity was 63.6%.

**Q.** What about the residual activity [43, 47] of the same compound?
**A.** Its residual activity is 100%.

**Q.** And the residual activity [44, 47]?
**A.** The residual activity was 100%.

**Q.** And the residual activity [45, 47]?
**A.** The residual activity was 75.2%.
